ChEMBL document CHEMBL4308842, “Allosteric Modulators of HSP90 and HSP70: Dynamics Meets Function through Structure-Based Drug Design” (J Med Chem, 2018)
Values belong to the compound of their own block, whether it stands above or below them.

Tests used:
[1] = molecular target: Chaperone protein dnaK (Escherichia coli) (UniProt C3TRK2); experiment: Inhibition of Escherichia coli DNAK ATPase activity after 3 hrs relative to control; details: concentration not given here
[2] = system: SK-BR-3; experiment: Antiproliferative activity against human SKBR3 cells; type: functional, cell-based
[3] = system: MCF7; experiment: Antiproliferative activity against human MCF7 cells; type: functional, cell-based
[4] = system: Jurkat; experiment: Antiproliferative activity against human Jurkat T cells after 48 hrs; type: functional, cell-based
[5] = system: Jurkat; experiment: Potency index, ratio of etoposide IC50 to compound IC50 for antiproliferative activity against human Jurkat T cells; type: functional
[6] = system: Jurkat; experiment: Potency index, ratio of 17-AAG IC50 to compound IC50 for antiproliferative activity against human Jurkat T cells; type: functional
[7] = molecular target: Heat shock protein HSP90 (Homo sapiens, UniProt P07900+P08238); experiment: Binding affinity to HSP90 (unknown origin) by SPR analysis; type: protein assay
[8] = system: Jurkat; experiment: Potency index, ratio of novobiocin IC50 to compound IC50 for antiproliferative activity against human Jurkat T cells; type: functional

Sequence of Chaperone protein dnaK (Escherichia coli) (C3TRK2 1-638): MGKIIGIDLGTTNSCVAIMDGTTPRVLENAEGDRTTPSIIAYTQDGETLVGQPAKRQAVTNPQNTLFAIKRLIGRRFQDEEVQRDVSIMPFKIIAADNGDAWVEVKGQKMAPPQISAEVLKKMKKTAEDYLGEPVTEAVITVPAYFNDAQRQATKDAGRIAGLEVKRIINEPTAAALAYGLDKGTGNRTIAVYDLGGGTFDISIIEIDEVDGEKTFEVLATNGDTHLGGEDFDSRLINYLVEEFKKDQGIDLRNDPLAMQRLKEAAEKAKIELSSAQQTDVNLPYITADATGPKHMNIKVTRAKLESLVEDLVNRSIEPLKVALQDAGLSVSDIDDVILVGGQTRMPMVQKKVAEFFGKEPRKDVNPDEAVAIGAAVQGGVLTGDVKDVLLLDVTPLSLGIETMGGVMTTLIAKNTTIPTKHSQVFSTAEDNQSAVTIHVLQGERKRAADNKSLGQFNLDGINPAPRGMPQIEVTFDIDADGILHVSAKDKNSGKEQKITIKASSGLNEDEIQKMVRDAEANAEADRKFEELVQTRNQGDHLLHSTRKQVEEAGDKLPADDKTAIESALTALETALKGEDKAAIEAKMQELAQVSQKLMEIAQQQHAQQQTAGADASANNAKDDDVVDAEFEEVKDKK

- inhibition [1]: 75%
Structure (SMILES): O=c1c(O)c(-c2cc(O)c(O)c(O)c2)oc2cc(O)cc(O)c12

Structure (SMILES): O=C(O[C@@H]1Cc2c(O)cc(O)cc2O[C@@H]1c1cc(O)c(O)c(O)c1)c1cc(O)c(O)c(O)c1 [EPIGALOCATECHIN GALLATE]
- IC50 [2]: 4 µM
- IC50 [3]: 4 µM

Structure (SMILES): COc1cccc(-c2cc(C(=O)Nc3cc4cc(OC)c(OC(C)=O)c(C)c4oc3=O)ccc2OC)c1
- IC50 [4]: 0.416 µM
- Ratio IC50 [5]: 3
- Ratio IC50 [6]: 10
- Kd [7]: 1 to 2 µM
- Ratio IC50 [8]: 600

Structure (SMILES): CO[C@@H]1[C@@H](OC(=O)c2ccc(C)[nH]2)[C@@H](O)[C@H](Oc2ccc3c(O)c(NC(=O)c4c[nH]c(C(=O)Nc5c(O)c6ccc(O[C@@H]7OC(C)(C)[C@H](OC)[C@@H](OC(=O)c8ccc(C)[nH]8)[C@H]7O)c(C)c6oc5=O)c4C)c(=O)oc3c2C)OC1(C)C
- IC50 [2]: 2 µM
- IC50 [3]: 2 µM
